This passage reports Solid-liquid equilibrium temperature results from the NIST ThermoML archive (doi:10.1021/je600575r).

The structures appear in SMILES notation. ± gives the expanded uncertainty stated by the source.

This data set is described as follows: Solid-liquid equilibrium temperature. Particulars: Crystal, visual observation.

Regarding `CCCCCCCCCCC1CCCCC1` [decylcyclohexane], the Solid-liquid equilibrium temperature (100 kPa) is on record as 271.3 ± 0.5 K; the Solid-liquid equilibrium temperature (20000 kPa) was 276 ± 0.5 K; the Solid-liquid equilibrium temperature (40100 kPa) is 280.5 ± 0.6 K; the Solid-liquid equilibrium temperature (59900 kPa) is reported as 284.8 ± 0.6 K; the Solid-liquid equilibrium temperature (80100 kPa) is reported as 289.2 ± 0.6 K; the Solid-liquid equilibrium temperature (100100 kPa) was found to be 293.9 ± 0.6 K.
`CCCCCCCCCCCCCC1CCCCC1` [cyclohexane, tridecyl-]: the Solid-liquid equilibrium temperature is reported as 286.9 ± 1.1 K (100 kPa); 291.7 ± 1.1 K (20000 kPa); 296.3 ± 1.1 K (40200 kPa); 300.7 ± 1.1 K (60000 kPa); 304.9 ± 1.1 K (80100 kPa); 309.1 ± 1.1 K (100000 kPa).
With `CCCCCCCCCCCCCCCCCCCC1CCCCC1` [nonadecylcyclohexane], the Solid-liquid equilibrium temperature is, setting by setting: (100 kPa) 315.7 ± 0.7 K; (19800 kPa) 320.6 ± 0.7 K; (39500 kPa) 324.8 ± 0.7 K; (59800 kPa) 329.2 ± 0.7 K; (78000 kPa) 333.7 ± 0.7 K.
In the case of `CCCCCCCCCCCCC1CCCCC1` [dodecylcyclohexane], the Solid-liquid equilibrium temperature reads like this: (100 kPa) 285.8 ± 0.5 K; (19500 kPa) 290.6 ± 0.6 K; (39600 kPa) 295.2 ± 0.6 K; (60900 kPa) 299.9 ± 0.6 K; (79900 kPa) 304.2 ± 0.6 K; (100000 kPa) 308.4 ± 0.6 K.
As for `CCCCCCCCCCCCCCCCCCC1CCCCC1` [octadecylcyclohexane], the Solid-liquid equilibrium temperature runs as follows: (100 kPa) 314.3 ± 1.1 K; (20000 kPa) 319.3 ± 1.1 K; (39900 kPa) 324.2 ± 1.1 K; (59600 kPa) 328.8 ± 1.1 K.
Consider `CCCCCCCCCCCCCCCC1CCCCC1` [cyclohexane, pentadecyl-], for which the Solid-liquid equilibrium temperature reads like this: (100 kPa) 298.1 ± 1.1 K; (19300 kPa) 302.6 ± 1.1 K; (40000 kPa) 307.6 ± 1.1 K; (60100 kPa) 312.3 ± 1.1 K; (80300 kPa) 316.8 ± 1.1 K; (100100 kPa) 320.8 ± 1.1 K.
For the compound `CCCCCCCCCCCCCCC1CCCCC1` [tetradecylcyclohexane], the Solid-liquid equilibrium temperature worked out at 297.2 ± 0.9 K (100 kPa); 302.2 ± 0.9 K (20000 kPa); 307 ± 0.9 K (39900 kPa); 311.5 ± 0.9 K (60000 kPa); 316 ± 0.9 K (79900 kPa); 320.3 ± 1 K (100100 kPa).
For the compound `CCCCCCCCCCCC1CCCCC1` [undecane, 1-cyclohexyl-], the Solid-liquid equilibrium temperature is, setting by setting: (100 kPa) 272.4 ± 0.8 K; (20000 kPa) 276.8 ± 0.8 K; (40000 kPa) 281.3 ± 0.8 K; (60000 kPa) 285.7 ± 0.9 K; (80500 kPa) 289.9 ± 0.9 K; (100000 kPa) 293.9 ± 0.9 K.
